Like-named read-outs stand apart in the source and are kept apart here.
Legend:
clinical = type: in vivo, human
Procedure: A pharmacokinetic (PK) analysis was conducted of oritavancin from patients having complicated skin and skin structure infections (cSSSI) or bacteremia. The population for the analysis consisted of oritavancin-treated subjects and patients from 12 studies, consisting of nine Phase 1 studies, two Phase 2 studies, and one Phase 2/3 study. Oritavancin was administered as both single- and multiple-dose intravenous (IV) infusions in fixed doses ranging from 100 to 800 mg or weight-based doses ranging from 0.02 to 10 mg/kg.
Results: The final analysis population contained data from a total of 560 subjects: 200 from the Phase 1 studies, 86 from the Phase 2 bacteremia study, 29 from the Phase 2 cSSSI study, and 245 from the Phase 2/3 cSSSI study. The final pharmacokinetic analysis dataset contained a total of 6,336 oritavancin plasma concentrations, collected from these 560 subjects, of which 6,290 oritavancin concentrations were included in the results. The majority of subjects (>90%) contributed at least six samples to the population pharmacokinetic analysis.
A wide range of oritavancin doses was administered across the studies included in the population PK analysis, where 42% (236 of 560) of subjects received ≧400 mg, while 25% (142 of 560) received 800 mg or more. A histogram of the oritavancin doses administered is shown in FIG. 6, with midpoint values for each dose range shown over each bar. The duration over which oritavancin was infused ranged from 0.13 to 6.5 hr across all studies; however, oritavancin was administered over 1 hr for the majority of subjects. Histograms of the actual infusion durations and rates are shown in FIGS. 7 and 8, respectively, with midpoint values shown for each infusion duration or rate over each bar.
The final structural PK model for oritavancin in this analysis was a three-compartment model (one central, two peripheral) with a zero-order intravenous infusion rate and first-order, linear elimination. The model fit the data well (data not shown), regardless of the observed concentration or administered dose. If a nonlinear model had been necessary, there would have been significant bias in the weighted residuals at the lowest and/or highest concentrations and/or doses. No trends for decreasing CL with increasing dose were found.

MSSA or MRSA strains = experiment: Neutropenic-mouse thigh infection model, MSSA or MRSA strains, 72 h post-infection; type: in vivo, Staphylococcus aureus; details: independently of their MIC
Procedure: Methods: Thigh infection was established for 14 clinical SA isolates (3 MSSA and 11 MRSA; MICs 0.0015 to 2 μg/mL) in neutropenic CD-1 mice (n=3/group) with 5×10^5 colony forming units (CFU) of cells. Single intravenous doses of ORI (0.5 to 40 mg/kg) were tested against one MSSA and one MRSA strain. […] Both thighs were harvested and CFU counts were evaluated after 24 h (single doses) or 72 h (HEQ doses) treatment.
In vivo studies: All studies were performed in accordance with protocols that were approved by the Institutional Animal Care and Use Committee. Thigh infection was established for 14 clinical S. aureus isolates in neutropenic CD-1 mice (19-21 g, n=3/group) with 5×10^5 colony forming units (CFU) of cells in both thighs. In the single dose-response study, the number of bacteria/thigh was monitored 24 h post-infection (PI). In the human equivalent (HEQ) dose-ranging study, the bacterial titer was determined in mouse thighs at 2, 4, 8, 12, 24, 48 and 72 h PI. Thighs were serially diluted and plated on Baird-Parker agar plates to determine the bacterial titer. The limit of detection was 1.69 Log10 CFU/thigh. Bacterial titer decreases were calculated (compared to starting inoculum) in thighs at 72 h PI for each HEQ dose regimen of ORI.
Antibiotherapy: 1) In the single dose response study, mice were treated intravenously (IV) with ORI at doses ranging from 0.4 to 40 mg/kg at lh PI. […]

[1] = test system: S. aureus (MSSA, MRSA, and VRSA); details: within 15 minutes to 2 hours against MSSA, McKay et al. 2009; cited from earlier work

CN[C@H](CC(C)C)C(=O)N[C@H]1C(=O)N[C@@H](CC(N)=O)C(=O)N[C@H]2C(=O)N[C@H]3C(=O)N[C@H](C(=O)N[C@H](C(=O)O)c4cc(O)cc(O)c4-c4cc3ccc4O)[C@H](O[C@H]3C[C@](C)(N)[C@@H](O)[C@H](C)O3)c3ccc(c(Cl)c3)Oc3cc2cc(c3O[C@@H]2O[C@H](CO)[C@@H](O)[C@H](O)[C@H]2O[C@H]2C[C@](C)(NCc3ccc(-c4ccc(Cl)cc4)cc3)[C@@H](O)[C@H](C)O2)Oc2ccc(cc2Cl)[C@H]1O [Oritavancin, N-(4-(4-chlorophenyl)benzyl)A82846B]
Cmin, Mean (clinical; 180-330 mg/day (n = 140)): 2.58 µg/mL
Cmin, Median (clinical; 180-330 mg/day (n = 140)): 2.20 µg/mL
Cmin, Mean (clinical; <180 mg/day (n = 181)): 1.17 µg/mL
Cmin, Median (clinical; <180 mg/day (n = 181)): 0.949 µg/mL
Cmin, Mean (clinical; >330 mg/day (n = 239)): 12.5 µg/mL
Cmin, Median (clinical; >330 mg/day (n = 239)): 11.0 µg/mL
Vc (clinical; healthy subjects, Multiple Dose (n = 109)): 5.10 L
Cmin (clinical; healthy subjects, Multiple Dose (n = 109), normalized to a dose of 200 mg, after a median of 4 (2-14) days): 11.5 µg/mL
Vc (clinical; healthy subjects, Single Dose (n = 91)): 5.30 L
Cmin (clinical; healthy subjects, Single Dose (n = 91), normalized to a dose of 200 mg): 3.30 µg/mL
Plasma half-life (clinical; human, in vivo): prolonged
AUC(0-t) (clinical; human, in vivo, 200 mg, healthy subjects, Multiple Dose (n = 109), normalized to a dose of 200 mg, after a median of 4 (2-14) days, read-out: AUC0-24): 459 µg·h/mL
Cmax (clinical; human, in vivo, 200 mg, healthy subjects, Multiple Dose (n = 109), normalized to a dose of 200 mg, after a median of 4 (2-14) days, read-out: Cmax): 46800 ng/mL
AUC(0-t) (clinical; human, in vivo, 200 mg, healthy subjects, Single Dose (n = 91), normalized to a dose of 200 mg, read-out: AUC0-24): 216 µg·h/mL
Cmax (clinical; human, in vivo, 200 mg, healthy subjects, Single Dose (n = 91), normalized to a dose of 200 mg, read-out: Cmax): 33900 ng/mL
AUC(0-t) (clinical; human, in vivo, 180-330 mg/day (n = 140), read-out: AUC0-24, Mean): 181 µg·h/mL
AUC(0-t) (clinical; human, in vivo, 180-330 mg/day (n = 140), read-out: AUC0-24, Median): 171 µg·h/mL
clearance (clinical; human, in vivo, 180-330 mg/day (n = 140), read-out: CL, Mean (converted)): 9.57 mL/min
clearance (clinical; human, in vivo, 180-330 mg/day (n = 140), read-out: CL, Median (converted)): 9.07 mL/min
Cmax (clinical; human, in vivo, 180-330 mg/day (n = 140), read-out: Cmax, Mean): 33400 ng/mL
Cmax (clinical; human, in vivo, 180-330 mg/day (n = 140), read-out: Cmax, Median): 30000 ng/mL
half-life (clinical; human, in vivo, 180-330 mg/day (n = 140), read-out: T1/2, α, Mean (converted)): 128 min
half-life (clinical; human, in vivo, 180-330 mg/day (n = 140), read-out: T1/2, α, Median (converted)): 128 min
half-life (clinical; human, in vivo, 180-330 mg/day (n = 140), read-out: T1/2, β, Mean (converted)): 1780 min
half-life (clinical; human, in vivo, 180-330 mg/day (n = 140), read-out: T1/2, β, Median (converted)): 1760 min
half-life (clinical; human, in vivo, 180-330 mg/day (n = 140), read-out: T1/2, γ, Mean (converted)): 22600 min
half-life (clinical; human, in vivo, 180-330 mg/day (n = 140), read-out: T1/2, γ, Median (converted)): 22400 min
AUC(0-t) (clinical; human, in vivo, <180 mg/day (n = 181), read-out: AUC0-24, Mean): 90 µg·h/mL
AUC(0-t) (clinical; human, in vivo, <180 mg/day (n = 181), read-out: AUC0-24, Median): 73.6 µg·h/mL
clearance (clinical; human, in vivo, <180 mg/day (n = 181), read-out: CL, Mean (converted)): 9.3 mL/min
clearance (clinical; human, in vivo, <180 mg/day (n = 181), read-out: CL, Median (converted)): 9.17 mL/min
Cmax (clinical; human, in vivo, <180 mg/day (n = 181), read-out: Cmax, Mean): 17800 ng/mL
Cmax (clinical; human, in vivo, <180 mg/day (n = 181), read-out: Cmax, Median): 14300 ng/mL
half-life (clinical; human, in vivo, <180 mg/day (n = 181), read-out: T1/2, α, Mean (converted)): 121 min
half-life (clinical; human, in vivo, <180 mg/day (n = 181), read-out: T1/2, α, Median (converted)): 118 min
half-life (clinical; human, in vivo, <180 mg/day (n = 181), read-out: T1/2, β, Mean (converted)): 1640 min
half-life (clinical; human, in vivo, <180 mg/day (n = 181), read-out: T1/2, β, Median (converted)): 1650 min
half-life (clinical; human, in vivo, <180 mg/day (n = 181), read-out: T1/2, γ, Mean (converted)): 22600 min
half-life (clinical; human, in vivo, <180 mg/day (n = 181), read-out: T1/2, γ, Median (converted)): 23200 min
AUC(0-t) (clinical; human, in vivo, >330 mg/day (n = 239), read-out: AUC0-24, Mean): 750 µg·h/mL
AUC(0-t) (clinical; human, in vivo, >330 mg/day (n = 239), read-out: AUC0-24, Median): 712 µg·h/mL
clearance (clinical; human, in vivo, >330 mg/day (n = 239), read-out: CL, Mean (converted)): 7.35 mL/min
clearance (clinical; human, in vivo, >330 mg/day (n = 239), read-out: CL, Median (converted)): 6.68 mL/min
Cmax (clinical; human, in vivo, >330 mg/day (n = 239), read-out: Cmax, Mean): 106000 ng/mL
Cmax (clinical; human, in vivo, >330 mg/day (n = 239), read-out: Cmax, Median): 105000 ng/mL
half-life (clinical; human, in vivo, >330 mg/day (n = 239), read-out: T1/2, α, Mean (converted)): 147 min
half-life (clinical; human, in vivo, >330 mg/day (n = 239), read-out: T1/2, α, Median (converted)): 141 min
half-life (clinical; human, in vivo, >330 mg/day (n = 239), read-out: T1/2, β, Mean (converted)): 1880 min
half-life (clinical; human, in vivo, >330 mg/day (n = 239), read-out: T1/2, β, Median (converted)): 1760 min
half-life (clinical; human, in vivo, >330 mg/day (n = 239), read-out: T1/2, γ, Mean (converted)): 21200 min
half-life (clinical; human, in vivo, >330 mg/day (n = 239), read-out: T1/2, γ, Median (converted)): 20800 min
clearance (clinical; human, in vivo, healthy subjects, Multiple Dose (n = 109), read-out: CL (converted)): 5.15 mL/min
half-life (clinical; human, in vivo, healthy subjects, Multiple Dose (n = 109), read-out: T1/2, α (converted)): 169 min
half-life (clinical; human, in vivo, healthy subjects, Multiple Dose (n = 109), read-out: T1/2, β (converted)): 1980 min
half-life (clinical; human, in vivo, healthy subjects, Multiple Dose (n = 109), read-out: T1/2, γ (converted)): 19200 min
clearance (clinical; human, in vivo, healthy subjects, Single Dose (n = 91), read-out: CL (converted)): 6.7 mL/min
half-life (clinical; human, in vivo, healthy subjects, Single Dose (n = 91), read-out: T1/2, α (converted)): 135 min
half-life (clinical; human, in vivo, healthy subjects, Single Dose (n = 91), read-out: T1/2, β (converted)): 1190 min
half-life (clinical; human, in vivo, healthy subjects, Single Dose (n = 91), read-out: T1/2, γ (converted)): 19000 min
Efficacy against MSSA or MRSA strains (MSSA or MRSA strains): active against all tested strains
Bactericidal activity, log reduction [1]: ≥ 3 log

Source: US8420592B2, “Methods of treatment using single doses of oritavancin” (The Medicines Company, priority 2008, dated 2013)
